# Reference: patent US8017611B2, “Pyridine and pyrazine derivatives -083” (AstraZeneca AB, priority 2007, dated 2011)
# Read-outs that look alike come from different tables or passages of the source.
# Key:
# [1] = biological target: T1, Axl expressed on NCI H1299 lung large cell carcinoma cells (Homo sapiens, UniProt P30530); assay: Cellular phospho-Axl ELISA assay, Test (b)
# T1 sequence (P30530 26-894): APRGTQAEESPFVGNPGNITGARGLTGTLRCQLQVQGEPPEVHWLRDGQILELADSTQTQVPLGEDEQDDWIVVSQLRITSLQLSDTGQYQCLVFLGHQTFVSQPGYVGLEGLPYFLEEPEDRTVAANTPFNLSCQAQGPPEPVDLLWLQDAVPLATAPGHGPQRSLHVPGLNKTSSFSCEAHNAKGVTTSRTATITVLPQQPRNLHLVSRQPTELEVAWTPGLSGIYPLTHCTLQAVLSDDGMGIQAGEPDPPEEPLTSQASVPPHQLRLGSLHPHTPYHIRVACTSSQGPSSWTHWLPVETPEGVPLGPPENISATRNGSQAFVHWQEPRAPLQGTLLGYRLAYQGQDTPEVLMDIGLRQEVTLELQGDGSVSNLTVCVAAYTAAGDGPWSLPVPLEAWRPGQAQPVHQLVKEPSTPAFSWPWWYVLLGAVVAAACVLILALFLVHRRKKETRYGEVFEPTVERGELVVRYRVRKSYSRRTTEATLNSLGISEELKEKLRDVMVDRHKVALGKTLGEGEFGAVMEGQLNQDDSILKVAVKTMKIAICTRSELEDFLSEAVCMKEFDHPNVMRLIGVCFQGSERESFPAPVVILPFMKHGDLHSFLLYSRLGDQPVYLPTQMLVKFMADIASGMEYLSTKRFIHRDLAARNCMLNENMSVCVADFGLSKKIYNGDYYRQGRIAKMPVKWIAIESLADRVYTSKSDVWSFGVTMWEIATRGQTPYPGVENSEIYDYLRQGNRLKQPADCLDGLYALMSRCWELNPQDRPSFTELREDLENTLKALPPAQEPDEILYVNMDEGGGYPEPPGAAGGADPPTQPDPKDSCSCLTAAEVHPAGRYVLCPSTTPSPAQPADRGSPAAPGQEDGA
# Method: This assay uses a conventional ELISA method to determine the ability of test compounds to inhibit phosphorylation of tyrosine residues in Axl.
# 100 μl Aliquots were seeded into each of the wells of a clear 96 well tissue culture plate and the plates were incubated overnight at 37° C. with 5% CO2 to allow the cells to adhere to the wells.
# Aliquots of each compound concentration were added to the cells in each well using the Echo 550 (Labcyte Inc., Sunnyvale, Calif., US). Control cells received DMSO only. The cells were incubated for 2 hours at 37° C. with 5% CO2.
# The resultant tissue culture plates were incubated on ice for 30 minutes to ensure full lysis.
# The wells were washed 3 times with 250 μl per well of PBS containing 0.05% v/v Tween (PBS/T). The wells were treated with 3% w/v BSA in PBS at ambient temperature for 2 hours and subsequently washed 3 times with 250 μl per well of PBS/T.
# 50 μl Aliquots of the NCI H1299 cell lysates were added to the ELISA plates.
# 100 μl Aliquots of substrate solution were added to each of the wells and fluorescence was read on a Tecan Ultra plate reader (Tecan UK Ltd., Reading, Berkshire, UK).
# [2] = biological target: T2, recombinant Axl tyrosine kinase (Homo sapiens, UniProt P30530); assay: In vitro Axl kinase assay (AlphaScreen), Test (a); type: biochemical; details: for % Axl tyrosine kinase inhibition at 1 μM concentration / inhibition at 1 µM: test compound at 1 μM, first value quoted; for inhibition at 1 µM: read-out: % Axl tyrosine kinase inhibition at 1 μM concentration; for IC50: Test (a), read-out: IC50 versus Axl tyrosine kinase
# T2 construct: encompassing amino acids 473 to 894 of Axl; GST (N); made in house; host or cells: SF126 insect cells
# T2 sequence (P30530 473-894): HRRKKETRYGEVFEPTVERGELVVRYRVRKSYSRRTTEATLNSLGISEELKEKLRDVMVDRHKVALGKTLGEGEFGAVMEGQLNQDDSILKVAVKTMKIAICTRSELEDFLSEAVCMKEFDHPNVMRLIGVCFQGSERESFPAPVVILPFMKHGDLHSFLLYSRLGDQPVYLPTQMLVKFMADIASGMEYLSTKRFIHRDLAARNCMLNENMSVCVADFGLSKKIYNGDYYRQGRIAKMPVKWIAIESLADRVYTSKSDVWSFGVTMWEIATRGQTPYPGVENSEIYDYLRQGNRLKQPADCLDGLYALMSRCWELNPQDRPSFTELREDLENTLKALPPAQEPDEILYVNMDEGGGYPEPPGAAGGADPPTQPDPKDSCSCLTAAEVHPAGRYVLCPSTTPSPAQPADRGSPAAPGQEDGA
# [3] = read-out: IC50 versus cellular phospho-Axl, Test (b), footnotes of Table A
# [4] = read-out: IC50 versus cellular phospho-Axl, Test (b), NCI H1299 cells stimulated with GAS6
% Axl tyrosine kinase inhibition at 1 μM concentration [2],inhibition at 1 µM [2],IC50 [2],further results,SMILES
^#99.8%,,,"IC50 [1, 3]: ~70 nM",Nc1ncc(-c2ccc(C3CCNCC3)cc2)cc1-c1nc2ccccc2o1 [Example 2.18]
,99.9%,,IC50 [1]: ~101 nM,"Nc1ncc(-c2cnn(C3CCNCC3)c2)cc1-c1nc2ccccc2s1 [Example 14, 3-(1,3-Benzothiazol-2-yl)-5-[1-(4-piperidyl)pyrazol-4-yl]pyridin-2-amine]"
,100%,~0.4 nM,IC50 [1]: ~16 nM,"Cc1nn(C2CCNCC2)cc1-c1cnc(N)c(-c2nc3ccccc3o2)c1 [Example 22, 3-(1,3-benzoxazol-2-yl)-5-[3-methyl-1-(4-piperidyl)pyrazol-4-yl]pyridin-2-amine]"
,,,"IC50 [1, 3]: ~234 nM",CN1CCC(n2cc(-c3cnc(N)c(-c4nc5ncc(F)cc5o4)c3)cn2)CC1 [Example 41.7]
100.0%,,~0.8 nM,"IC50 [1, 4]: ~7 nM",CN1CCC(n2cc(-c3cnc(N)c(-c4nc5ccccc5o4)c3)c(CO)n2)CC1 [Example 41.19]
100.0%,,~0.3 nM,"IC50 [1, 4]: ~3 nM",COCc1nn(C2CCN(C)CC2)cc1-c1cnc(N)c(-c2nc3ccccc3o2)c1 [Example 41.26]
100.0%,,~0.1 nM,,COCc1nn(C2CCNCC2)cc1-c1cnc(N)c(-c2nc3cccc(OC)c3o2)c1 [Example 62.14]
100.0%,,,,COc1cccc2nc(-c3cc(-c4cn(C5CCNCC5)nc4C)cnc3N)oc12 [Example 62.15]
,98.4%,,,"CNCc1nn(C2CCN(C(C)=O)CC2)cc1-c1cnc(N)c(-c2nc3ccccc3o2)c1 [Example 63, 1-[4-[4-[6-amino-5-(1,3-benzoxazol-2-yl)-3-pyridyl]-3-(methylaminomethyl)pyrazol-1-yl]-1-piperidyl]ethanone]"
,99.1%,,,"CN1CCC(n2cc(-c3cnc(N)c(-c4nc5cccc(C#N)c5o4)c3)cn2)CC1 [Example 64, 2-[2-amino-5-[1-(1-methyl-4-piperidyl)pyrazol-4-yl]-3-pyridyl]-1,3-benzoxazole-7-carbonitrile]"
,100%,,,"CN1CCC(n2cc(-c3cnc(N)c(-c4nc5cccc(CO)c5o4)c3)cn2)CC1 [Example 65, [2-[2-amino-5-[1-(1-methyl-4-piperidyl)pyrazol-4-yl]-3-pyridyl]-1,3-benzoxazol-7-yl]methanol]"
,100%,~0.6 nM,,"COCc1nn(C2CCN(C(=O)CO)CC2)cc1-c1cnc(N)c(-c2nc3ccccc3o2)c1 [Example 66, 1-[4-[4-[6-amino-5-(1,3-benzoxazol-2-yl)-3-pyridyl]-3-(methoxymethyl)pyrazol-1-yl]-1-piperidyl]-2-hydroxy-ethanone]"
100.0%,,~0.7 nM,,COCc1nn(C2CCN(C(=O)[C@H](C)O)CC2)cc1-c1cnc(N)c(-c2nc3ccccc3o2)c1 [Example 67.1]
100.0%,,,,C[C@H](O)C(=O)N1CCC(n2cc(-c3cnc(N)c(-c4nc5ccccc5o4)c3)c(CO)n2)CC1 [Example 67.2]
,100%,,,"CNC(=O)CN1CCC(n2cc(-c3cnc(N)c(-c4nc5ccccc5o4)c3)c(COC)n2)CC1 [Example 68, 2-[4-[4-[6-amino-5-(1,3-benzoxazol-2-yl)-3-pyridyl]-3-(methoxymethyl)pyrazol-1-yl]-1-piperidyl]-N-methyl-acetamide]"
,100%,,,"CN(C)C(=O)CN1CCC(n2cc(-c3cnc(N)c(-c4nc5ccccc5o4)c3)c(CO)n2)CC1 [Example 69, 2-[4-[4-[6-amino-5-(1,3-benzoxazol-2-yl)-3-pyridyl]-3-(hydroxymethyl)pyrazol-1-yl]-1-piperidyl]-N,N-dimethyl-acetamide]"
,99.9%,,,"CNC(=O)c1cccc2nc(-c3cc(-c4cnn(C5CCNCC5)c4)cnc3N)oc12 [Example 70, 2-[2-amino-5-[1-(4-piperidyl)pyrazol-4-yl]-3-pyridyl]-N-methyl-1,3-benzoxazole-7-carboxamide]"
,100%,,,"COCc1nn(C2CCN(C(=O)CN(C)C)CC2)cc1-c1cnc(N)c(-c2nc3ccccc3o2)c1 [Example 71, 1-[4-[4-[6-amino-5-(1,3-benzoxazol-2-yl)-3-pyridyl]-3-(methoxymethyl)pyrazol-1-yl]-1-piperidyl]-2-dimethylaminoethanone]"
,100%,,,"COCc1nn(C2CCN(CCO)CC2)cc1-c1cnc(N)c(-c2nc3ccccc3o2)c1 [Example 72, 2-[4-[4-[6-amino-5-(1,3-benzoxazol-2-yl)-3-pyridyl]-3-(methoxymethyl)pyrazol-1-yl]-1-piperidyl]ethanol]"
